Reference: patent EP4810508A1, “ARABINOSE DERIVATIVE COMPOUND, AND COMPOSITION COMPRISING SAME FOR PREVENTING OR TREATING DEGENERATIVE BRAIN DISEASES” (Digmbio. Inc., priority 2023, dated 2025)
Read-outs that look alike come from different tables or passages of the source.

Legend:
male ICR mice [1] = assay: Scopolamine-induced cognitive impairment model: Y-maze test; assay type: in vivo; conditions: for percent recovery of cognitive function (Y-maze) at 50 mg/kg: Mus musculus, po, 168 h; for in vivo Y-maze (%): spontaneous alternation
Description: (§1) A memory loss rodent animal model induced by scopolamine intraperitoneal administration is used, and an evaluation method for memory uses a Y-maze test and a passive avoidance test (PAT). Scopolamine is a representative experimental model showing an impairment of cognitive function similar to AD patients by blocking neurotransmitters when administered to an animal as an antagonist of a muscarinic acetylcholine receptor, and as a cognitive function evaluation technique, a Y-maze test and a passive avoidance experiment, which are general and representative methods, were used, and in order to objectify the efficacy levels of the compounds, a group administered with donepezil (Aricept, Eisa) as a positive control material was separately provided to compare the efficacy levels of the compounds.
(§2) In order to evaluate cognitive function, 5-week-old male ICR mice were used, the compounds to be evaluated were prepared at a dose of 50 mg/kg/ml and repeatedly orally administered at a predetermined time for 7 days, and the positive control material was carried out at 5 mg/kg/ml. After the last administration, after 30 minutes of intraperitoneal administration of 1 mg/kg/2 ml of scopolamine, a Y-maze test and a passive avoidance test, which are cognitive function evaluations, were performed.
The Y-maze test is a method for evaluating the ability to sequentially act as an experiment for measuring short-term memory. The measurement equipment is composed of three branches, each branch has a length of 42 cm, a width of 3 cm, and a height of 12 cm, and an angle at which three branches are folded is 120°. Experimental animals are put into each branch for 8 minutes, and the number of times of entering the branches to the tail of the experimental animal and the case of being sequentially received in each branch are scored (actual alternation). The alternation behavior is defined as entering not to overlap all three, and is calculated by the following equation. [formula]

male ICR mice [2] = assay: Scopolamine-induced cognitive impairment model: passive avoidance test (PAT); assay type: in vivo; conditions: for percent recovery of memory in passive avoidance test (normal group = 100, scopolamine control = 0) at 50 mg/kg: Mus musculus, po, 168 h, read-out: in vivo(effect) PAT (%); for in vivo PAT: time staying in bright room (step-through latency); for cognitive function recovery compared to normal animals, passive avoidance test (effect %): compounds 50 mg/kg, orally for 7 days, scopolamine 1 mg/kg intraperitoneal
Description: as §1, §2
In addition, the passive avoidance test was conducted using an avoidance learning box (Jeondo B&P, Korea, Seoul), and the avoidance learning box is divided into a dark room and a bright room, and when a laboratory animal is put into a bright room, the subject goes beyond the dark room. At the moment, an electric shock of 0.5 mA is applied for 5 seconds, and when the next day experimental animal is put back into a bright room, an electric shock in a dark room is memorized and stay in a bright room. In this case, a step-through latency is measured to evaluate memory. The efficacy of the compounds of the present invention against the normal group and the control group in the Y-maze test and the passive avoidance test was described in the following Table 3 (Scopolamine-induced cognitive impairment model result).

HRE/Luc/HEK293 cells = assay: HRE (Hypoxia Response Element) luciferase assay; assay type: cell-based, human; conditions: for fold induction at 10 µM / fold induction at 100 µM: Homo sapiens; for HRE assay: increase in HRE expression levels by the test substance relative to the vehicle in HRE/Luc/HEK293 cells
Outline: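 HRE-luciferase HEK293 cells in MEM/10% FBS pretreated with compound 6 h, then held under hypoxia (0.1% O2) 18 h; luminescence read after lysis. Scored as fold increase over vehicle, with twofold threshold at 100, 10 or 1 µM.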

[3] = read-out: in vivo(effect) Y-maze (%)
[4] = scopolamine 1 mg/kg i.p., compounds 50 mg/kg oral for 7 days, donepezil 5 mg/kg (avg.)
[5] = HEK293, fold increase of HRE expression, hypoxic conditions (O2 0.1%) 18 hours, Table 2, read-out: HRE-increasing 10uM
[6] = HEK293, fold increase of HRE expression, hypoxic conditions (O2 0.1%) 18 hours, Table 2, read-out: HRE-increasing 100uM
[7] = read-out: cognitive function recovery compared to normal animals, Y-maze experiment (effect %)
[8] = HEK293, 18 h, Table 2 (Examples 75-109, 114), read-out: HRE-inceasing 10uM
[9] = HEK293, 18 h, Table 2 (Examples 75-109, 114), read-out: HRE-inceasing 100uM
[10] = effect compared to normal group (100) and control group (0), compounds 50 mg/kg oral for 7 days, donepezil 5 mg/kg (avg.)
[11] = range over experiment sets, donepezil 5 mg/kg oral for 7 days, scopolamine 1 mg/kg i.p.
[12] = range over experiment sets, effect compared to normal and control group, donepezil 5 mg/kg

Row | SMILES | percent recovery of cognitive function (Y-maze) at 50 mg/kg (male ICR mice [1]; [3]) | in vivo Y-maze (%) (male ICR mice [1]; [4]) | percent recovery of memory in passive avoidance test (normal group = 100, scopolamine control = 0) at 50 mg/kg (male ICR mice [2]) | in vivo PAT (male ICR mice [2]; [4]) | fold induction at 10 µM (HRE/Luc/HEK293 cells; [5]) | fold induction at 100 µM (HRE/Luc/HEK293 cells; [6]) | HRE assay (HRE/Luc/HEK293 cells) | fold induction at 10 µM (HRE/Luc/HEK293 cells; [8]) | fold induction at 100 µM (HRE/Luc/HEK293 cells; [9]) | HRE expression (HRE/Luc/HEK293 cells; low concentration of 1 µM) | also measured
1 | O[C@@H]1[C@@H](O)[C@@H](Oc2ccc(Cc3ccccc3)cc2)OC[C@@H]1O [Example 1, (2R,3R,4S,5S)-2-(4-benzylphenoxy)tetrahydro-2H-pyran-3,4,5-triol] | 38% | 64% | 35% | 133 s | 1.2 | 2.2 | •• |  |  |  | 
2 | Cc1ccc(Cc2ccc(O[C@H]3OC[C@H](O)[C@H](O)[C@H]3O)cc2)cc1 [Example 2, (2R,3R,4S,5S)-2-(4-(4-methylbenzyl)phenoxy) tetrahydro-2H-pyran-3,4,5-triol] | 51% | 63% | 25% | 134 s | 2.5 | 3.2 | ••• |  |  |  | percent recovery of cognitive function (Y-maze) at 50 mg/kg (male ICR mice [1]; [7]): ≥ 50%
3 | COc1ccc(Cc2ccc(O[C@H]3OC[C@H](O)[C@H](O)[C@H]3O)cc2)cc1 [Example 3, (2R,3R,4S,5S)-2-(4-(4-methoxybenzyl)phenoxy)tetrahydro-2H-pyran-3,4,5-triol] | 59% | 61% | 91% | 206 s | 1.5 | 3.1 | •• |  |  |  | percent recovery of cognitive function (Y-maze) at 50 mg/kg (male ICR mice [1]; [7]): 59%; cognitive function recovery compared to normal animals, passive avoidance test (effect %) (male ICR mice [2]; donepezil 5 mg/kg): 91%
4 | COc1ccc(Cc2ccc(O[C@H]3O[C@@H](C)[C@@H](O)[C@@H](O)[C@@H]3O)cc2)cc1 [Example 6, (2R,3S,4R,5S,6S)-2-(4-(4-methoxybenzyl)phenoxy)-6-methyltetrahydro-2H-pyran-3,4,5-triol] | -6% | 53% | 10% | 109 s | < 1 | 1.5 | • |  |  |  | 
5 | CC(C)c1ccc(Cc2ccc(O[C@H]3OC[C@H](O)[C@H](O)[C@H]3O)cc2)cc1 [Example 7, (2R,3R,4S,5S)-2-(4-(4-isopropylbenzyl)phenoxy)tetrahydro-2H-pyran-3,4,5-triol] | 57% | 65% | 73% | 179 s | 3.5 | < 1 | ••• |  |  |  | percent recovery of cognitive function (Y-maze) at 50 mg/kg (male ICR mice [1]; [7]): ≥ 50%; cognitive function recovery compared to normal animals, passive avoidance test (effect %) (male ICR mice [2]; donepezil 5 mg/kg): ≥ 50%; HRE expression (HRE/Luc/HEK293 cells; concentration of 10 µM): more than threefold
6 | CC(C)c1ccc(Cc2ccc(O[C@H]3OC[C@H](O)[C@H](O)[C@H]3O)c(Cl)c2)cc1 [Example 8, (2R,3R,4S,5S)-2-(2-chloro-4-(4-isopropylbenzyl)phenoxy)tetrahydro-2H-pyran-3,4,5-triol] | 43% | 58% | 11% | 58 s | 4.2 |  | ••• |  |  |  | HRE expression (HRE/Luc/HEK293 cells; concentration of 10 µM): more than threefold
7 | COc1ccc(Cc2cccc(O[C@H]3OC[C@H](O)[C@H](O)[C@H]3O)c2)cc1 [Example 25, (2R,3R,4S,5S)-2-(3-(4-methoxybenzyl)phenoxy)tetrahydro-2H-pyran-3,4,5-triol] | 65% | 62% | 1% | 42 s |  |  |  |  |  |  | percent recovery of cognitive function (Y-maze) at 50 mg/kg (male ICR mice [1]; [7]): ≥ 50%
8 | Cc1ccc2oc(-c3ccc(O[C@@H]4OC[C@H](O)[C@H](O)[C@H]4O)c(F)c3)nc2c1 [Example 104, (2S,3R,4S,5S)-2-(2-fluoro-4-(5-methylbenzo[d]oxazol-2-yl)phenoxy)tetrahydro-2H-pyran-3,4,5-triol] |  |  |  |  |  |  |  | 3.6 | 2 | more than threefold | 
9 | Cc1ccc2oc(-c3ccc(O[C@H]4OC[C@H](O)[C@H](O)[C@H]4O)c(F)c3)nc2c1 [Example 105, (2R,3R,4S,5S)-2-(2-fluoro-4-(5-methylbenzo[d]oxazol-2-yl)phenoxy)tetrahydro-2H-pyran 3,4,5-triol] |  |  |  |  |  |  |  | 2.5 | 3.7 |  | 
10 | COc1ccc2oc(-c3cccc(O[C@@H]4OC[C@H](O)[C@H](O)[C@H]4O)c3)nc2c1 [Example 106, (2S,3R,4S,5S)-2-(3-(5-methoxybenzo[d]oxazol-2-yl)phenoxy)tetrahydro-2H-pyran-3,4,5-triol] |  |  |  |  |  |  |  | 3.4 | 1.7 | more than threefold | 
11 | COc1ccc2oc(-c3cccc(O[C@H]4OC[C@H](O)[C@H](O)[C@H]4O)c3)nc2c1 [Example 107, (2R,3R,4S,5S)-2-(3-(5-methoxybenzo[d]oxazol-2-yl)phenoxy)tetrahydro-2H-pyran-3,4,5-triol] |  |  |  |  |  |  |  | 3.1 | 4.2 | more than threefold | 
12 | Cc1ccc2oc(-c3ccc(O[C@@H]4OC[C@H](O)[C@H](O)[C@H]4O)cc3)nc2c1 [Example 108, (2S,3R,4S,5S)-2-(4-(5-methylbenzo[d]oxazol-2-yl)phenoxy)tetrahydro-2H-pyran-3,4,5-triol] |  |  |  |  |  |  |  | 3.6 | 1.6 | more than threefold | 
13 | Cc1ccc2oc(-c3ccc(O[C@H]4OC[C@H](O)[C@H](O)[C@H]4O)cc3)nc2c1 [Example 109, (2R,3R,4S,5S)-2-(4-(5-methylbenzo[d]oxazol-2-yl)phenoxy)tetrahydro-2H-pyran-3,4,5-triol] |  |  |  |  |  |  |  | 3.2 | 4.4 | more than threefold | 
14 | O=C(c1ccc(O[C@@H]2OC[C@H](O)[C@H](O)[C@H]2O)cc1)c1ccco1 [Example 114, furan-2-yl (4-(((2S,3R,4S,5S)-3,4,5-trihydroxytetrahydro-2H-pyran-2-yl)oxy)phenyl)methanone] |  |  |  |  |  |  |  | 1.1 | 1.3 |  | 
15 | O=C(c1ccc(O[C@H]2OC[C@H](O)[C@H](O)[C@H]2O)cc1)c1ccco1 [Example 115, furan-2-yl(4-(((2R,3R,4S,5S)-3,4,5-trihydroxytetrahydro-2H-pyran-2-yl)oxy)phenyl)methanone] |  |  |  |  | 1 | 1.4 |  |  |  |  | 
16 | COc1cc2c(cc1OC)C(=O)C(CC1CCN(Cc3ccccc3)CC1)C2 (stereo not drawn) [donepezil, reference compound] |  | 67% |  | 219 s |  |  |  |  |  |  | cognitive function recovery compared to normal animals, Y-maze experiment (effect %) (male ICR mice [1]; compounds 50 mg/kg, donepezil 5 mg/kg, orally for 7 days, scopolamine 1 mg/kg intraperitoneal): 35%; in vivo(effect) Y-maze (%) (male ICR mice [1]; [10]): 72%; in vivo Y-maze (%), range (male ICR mice [1]; [11]): 56-74%; in vivo(effect) Y-maze (%), range (male ICR mice [1]; [12]): 35-111%; cognitive function recovery compared to normal animals, passive avoidance test (effect %) (male ICR mice [2]; donepezil 5 mg/kg): 94%; in vivo(effect) PAT (%) (male ICR mice [2]; [10]): 82%; in vivo PAT (sec), range (male ICR mice [2]; [11]): 173~251 sec; in vivo(effect) PAT (%), range (male ICR mice [2]; [12]): 59-95%
